Data from ChEMBL document CHEMBL4382235, “Design, synthesis and biological evaluation of novel 1-phenyl phenanthridin-6(5H)-one derivatives as anti-tumor agents targeting TOPK” (Eur J Med Chem, 2019).
pIC50: −log10 of the molar value.

Tests used:
A549 = assay: cells; conditions: Homo sapiens, A549, 72 h
Description: Antiproliferative activity against human A549 cells after 72 hrs by MTT assay

HCT-116 [1] = assay: cells; conditions: Homo sapiens, HCT-116, 72 h
Description: Antiproliferative activity against human HCT116 cells after 72 hrs by MTT assay

HCT-15 [2] = assay: cells; conditions: Homo sapiens, HCT-15, 72 h
Description: Antiproliferative activity against human HCT15 cells after 72 hrs by MTT assay

HCT-116 [3] = assay: animal or person; conditions: Mus musculus, HCT-116, po, read-out: TGI
[4] = Toxicity in nude mouse xenografted with human HCT116 cells assessed as body weight loss at 10 to 15 mg/kg, qd administered via gavage for 3 weeks; format: organism-based; conditions: in vivo, po, 504 h
[5] = Toxicity in nude mouse xenografted with human HCT15 cells assessed as body weight loss at 10 to 15 mg/kg, qd administered via gavage for 3 weeks; format: organism-based; conditions: in vivo, po, 504 h
[6] = Toxicity in nude mouse xenografted with human SW620 cells assessed as body weight loss at 10 to 15 mg/kg, qd administered via gavage for 3 weeks; format: organism-based; conditions: in vivo, po, 504 h
[7] = Cmax in Sprague-Dawley rat at 2 mg/kg, iv by LC-MS/MS analysis; format: ADME, organism-based; parameters: dose 2 mg/kg, route intravenous; conditions: in vivo
[8] = Cmax in Sprague-Dawley rat at 15 mg/kg, po by LC-MS/MS analysis; format: ADME, organism-based; parameters: dose 15 mg/kg, route oral; conditions: in vivo
[9] = Tmax in Sprague-Dawley rat at 2 mg/kg, iv by LC-MS/MS analysis; format: ADME, organism-based; conditions: in vivo
[10] = Tmax in Sprague-Dawley rat at 15 mg/kg, po by LC-MS/MS analysis; format: ADME, organism-based; conditions: in vivo
[11] = AUC (0 to t) in Sprague-Dawley rat at 2 mg/kg, iv by LC-MS/MS analysis; format: ADME, organism-based; conditions: in vivo
[12] = AUC (0 to 24 hrs) in Sprague-Dawley rat at 15 mg/kg, po by LC-MS/MS analysis; format: ADME, organism-based; parameters: dose 15 mg/kg, time < 24 hr, route oral; conditions: in vivo
[13] = Clearance in Sprague-Dawley rat at 2 mg/kg, iv by LC-MS/MS analysis; format: ADME, organism-based; conditions: in vivo
[14] = Volume of distribution at steady state in Sprague-Dawley rat at 2 mg/kg, iv by LC-MS/MS analysis; format: ADME, organism-based; conditions: in vivo
[15] = Half life in Sprague-Dawley rat at 2 mg/kg, iv by LC-MS/MS analysis; format: ADME, organism-based; conditions: in vivo
[16] = MRT (0 to t) in Sprague-Dawley rat at 2 mg/kg, iv by LC-MS/MS analysis; format: ADME, organism-based; conditions: in vivo
[17] = MRT (0 to t) in Sprague-Dawley rat at 15 mg/kg, po by LC-MS/MS analysis; format: ADME, organism-based; conditions: in vivo
[18] = Oral bioavailability in Sprague-Dawley rat at 15 mg/kg by LC-MS/MS analysis; format: ADME, organism-based; conditions: in vivo
HCT-116 [19] = assay: animal or person; conditions: Mus musculus, HCT-116, po, read-out: TGI; remark: listed apart in the source
HCT-15 [20] = assay: animal or person; conditions: Mus musculus, HCT-15, po, read-out: TGI
HCT-15 [21] = assay: animal or person; conditions: Mus musculus, HCT-15, po, read-out: TGI; remark: listed apart in the source
SW-620 [22] = assay: animal or person; conditions: Mus musculus, SW-620, po, read-out: TGI
SW-620 [23] = assay: animal or person; conditions: Mus musculus, SW-620, po, read-out: TGI; remark: listed apart in the source

For Cc1cc(O)c(-c2ccc([C@@H](C)N)cc2)c2c1[nH]c(=O)c1sccc12, the pIC50 (A549) was 6.44, the pIC50 (HCT-116 [1]) was 6.33 and the pIC50 (HCT-15 [2]) was 6.59.
Cc1cc(O)c(-c2ccc([C@@H](C)CN(C)C)cc2)c2c1[nH]c(=O)c1sccc12 gave a pIC50 (A549) of 7.69, a pIC50 (HCT-116 [1]) of 7.35 and a pIC50 (HCT-15 [2]) of 7.14. For the same molecule, the inhibition in vivo at 15 mg/kg (HCT-116 [3]) was 49.4%.
In the case of Cc1cc(O)c(-c2ccc([C@@H](C)CN)cc2)c2c1[nH]c(=O)c1c(O)cccc12, the Activity [4] was “Non-Toxic”, the Activity [5] was “Non-Toxic” and the Activity [6] was “Non-Toxic”. For the same molecule, the Cmax [7] was 188 ng/mL, the Cmax [8] was 251 ng/mL and the Tmax [9] was 4.8 min. It also gave a Tmax [10] of 6.67 h, an AUC(0-t) [11] of 564 ng·h/mL and an AUC(0-t) at 24 h [12] of 4230 ng·h/mL. The CL [13] was 33.9532 mL/min/kg, the Vdss [14] was 20.25 L/kg and the half-life [15] was 7.02 h. The “MRT(t)” value [16] was 3.24 h, the MRT last [17] was 10.5 h and the bioavailability [18] was 100%. The pIC50 (A549) was 8.27, the pIC50 (HCT-116 [1]) was 8.10 and the pIC50 (HCT-15 [2]) was 7.50. It also gave an inhibition in vivo at 10 mg/kg (HCT-116 [19]) of 53.7%, an inhibition in vivo at 15 mg/kg (HCT-116 [3]) of 75.8% and an inhibition in vivo at 10 mg/kg (HCT-15 [20]) of 42.1%. For the same molecule, the inhibition in vivo at 15 mg/kg (HCT-15 [21]) was 78.8%, the inhibition in vivo at 10 mg/kg (SW-620 [22]) was 72.1% and the inhibition in vivo at 15 mg/kg (SW-620 [23]) was 79.7%.
In the case of C[C@H](c1ccc(-c2c(O)cc(Cl)c3[nH]c(=O)c4ccccc4c23)cc1)N(C)C, the pIC50 (A549) was < 6.00, the pIC50 (HCT-116 [1]) was < 6.00 and the pIC50 (HCT-15 [2]) was < 6.00.
NCC1(c2ccc(-c3c(O)cc(Cl)c4[nH]c(=O)c5c(O)cccc5c34)cc2)CC1 showed a pIC50 (A549) of 6.36 and a pIC50 (HCT-116 [1]) of 6.25.
With COc1cc(C)c2[nH]c(=O)c3ccccc3c2c1-c1ccc(C2(CN)CC2)cc1 the pIC50 (A549) was 6.05 and the pIC50 (HCT-116 [1]) was < 6.00.
With C[C@@H](N)c1ccc(-c2c(O)cc(Cl)c3[nH]c(=O)c4ccccc4c23)cc1 the pIC50 (A549) was 6.22, the pIC50 (HCT-116 [1]) was < 6.00 and the pIC50 (HCT-15 [2]) was 6.10.
For Cc1cc(O)c(-c2ccc([C@@H](C)N(C)C)cc2)c2c1[nH]c(=O)c1c(C)cccc12, the pIC50 (A549) was 6.33, the pIC50 (HCT-116 [1]) was 6.33 and the pIC50 (HCT-15 [2]) was 6.40.
Molecule Cc1cc(O)c(-c2ccc([C@@H](C)CN(C)C)cc2)c2c1[nH]c(=O)c1ccccc12 has a pIC50 (A549) of 6.58, a pIC50 (HCT-116 [1]) of 6.52 and a pIC50 (HCT-15 [2]) of 6.22.
Molecule Cc1cc(O)c(-c2ccc([C@@H](C)CN)cc2)c2c1[nH]c(=O)c1ccccc12 has a pIC50 (A549) of 7.10, a pIC50 (HCT-116 [1]) of 6.94 and a pIC50 (HCT-15 [2]) of 6.44.
Cc1cc(O)c(-c2ccc([C@@H](C)N(C)C)cc2)c2c1[nH]c(=O)c1ccccc12 gave a pIC50 (A549) of 6.60 and a pIC50 (HCT-116 [1]) of 6.50.
With Cc1ccc2c(=O)[nH]c3c(C)cc(O)c(-c4ccc([C@@H](C)CN)cc4)c3c2c1 the pIC50 (A549) was 7.22, the pIC50 (HCT-116 [1]) was 6.81 and the pIC50 (HCT-15 [2]) was 6.49.
Cc1ccc2c(=O)[nH]c3c(C)cc(O)c(-c4ccc([C@@H](C)N)cc4)c3c2c1 gave a pIC50 (A549) of 6.92, a pIC50 (HCT-116 [1]) of 6.41 and a pIC50 (HCT-15 [2]) of 6.66.
In the case of Cc1ccc2c(=O)[nH]c3c(C)cc(O)c(-c4ccc([C@@H](C)N(C)C)cc4)c3c2c1, the pIC50 (A549) was 6.50, the pIC50 (HCT-116 [1]) was 6.56 and the pIC50 (HCT-15 [2]) was 6.33.
In the case of Cc1cc(O)c(-c2ccc(C3(CN(C)C)CC3)cc2)c2c1[nH]c(=O)c1ccccc12, the pIC50 (A549) was < 6.00 and the pIC50 (HCT-116 [1]) was 6.02.
Cc1cc(O)c(-c2ccc(C3(CN)CC3)cc2)c2c1[nH]c(=O)c1ccccc12 gave a pIC50 (A549) of 6.68, a pIC50 (HCT-116 [1]) of 6.64 and a pIC50 (HCT-15 [2]) of 6.40.
Molecule Cc1cc(O)c(-c2ccc([C@@H](C)CN(C)C)cc2)c2c1[nH]c(=O)c1c(C)cccc12 has a pIC50 (A549) of 6.54, a pIC50 (HCT-116 [1]) of 6.38 and a pIC50 (HCT-15 [2]) of 6.47.
In the case of Cc1cc(O)c(-c2ccc([C@@H](C)CN)cc2)c2c1[nH]c(=O)c1c(C)cccc12, the pIC50 (A549) was 7.59, the pIC50 (HCT-116 [1]) was 7.12 and the pIC50 (HCT-15 [2]) was 6.52.
For Cc1ccc2c(c1)c(=O)[nH]c1c(C)cc(O)c(-c3ccc([C@@H](C)N)cc3)c12, the pIC50 (A549) was < 6.00 and the pIC50 (HCT-116 [1]) was 6.24.
With Cc1cc(O)c(-c2ccc(C3(CN(C)C)CC3)cc2)c2c1[nH]c(=O)c1c(N(C)C)cccc12 the pIC50 (A549) was < 6.00 and the pIC50 (HCT-116 [1]) was < 6.00.
For Cc1ccc2c(=O)[nH]c3c(C)cc(O)c(-c4ccc([C@@H](C)CN(C)C)cc4)c3c2c1, the pIC50 (A549) was 6.33, the pIC50 (HCT-116 [1]) was 6.41 and the pIC50 (HCT-15 [2]) was 6.30.
